# Tests used:
# Type in all cases: in vivo
# non-sensitized mice = test: PMB (native and conjugated forms) induced lethality, i.p.; settings: i.p. injection, lethality monitored for 7 days
# Method: B. PMB (native and conjugated forms) induced lethality
# PMB (native and conjugated forms) are evaluated for their inherent toxicity in non-sensitized mice. Male CB57BL/c mice (18-22 g, Jackson Labs) are used throughout this study. Animals are given either native PMB or conjugated PMB by intraperitoneal injection (0.5 ml/animal) and lethality monitored for 7 days. The LD100 is determined by varying the dose of PMB (native and conjugated forms) that result in 100% lethality. From 10-20 animals are used for each dose.
# E.coli 0111B4 endotoxin = test: i.v. protection against LD90 endotoxin challenge (endotoxin-induced lethality test); settings: i.v. injection 1-3 minutes before an LD90 i.p. injection of E.coli 0111B4 endotoxin (0.5 μg/kg)
# Method: The resulting "ultra pure" PMB-conjugate is compared to native PMB in an endotoxin-induced leathality test as described in Example 3C supra.
# At 1 mg/kg i.v., the ultra-pure PMB-conjugate gave >70% protection against a LD90 endotoxin challenge for at least 6 hours. […] Therefore the PMB-conjugate is suitable for prophylactic use.
# ^2 PMB (native or conjugate) given by i.v. injection 1-3 minutes
# before an LD90 i.p. injection of E.coli 0111B4 endotoxin (0.5
# normal test animal = test: i.v. toxicity (LD0, LD100), lethality monitored over 7 days
# Source text: LD0 is the highest non-toxic dose of PMB or its conjugate.
# LD100 is the dose of PMB or its conjugated form which results in 90-100% lethality when injected into a normal test animal.
# The "ultra pure" PMB-conjugate has a suprising reduction in toxicity as compared with native PMB. […] Comparisons in the table below are made between the highest non-toxic dose of PMB (native or conjugated)
# ^1 PMB (native or conjugate) given by i.v. injection and lethality
# monitored over 7 days. LD0 is the highest nontoxic dose which can be
# injected into a normal test animal.
# endotoxin (0111B4) = test: PMB anti-endotoxin evaluations: protection from endotoxin-induced lethality in galactosamine-hypersensitized mice
# Method: A. Endotoxin-induced lethality
# Male CB57BL/c mice (18-22 g, Jackson Labs) are used throughout this study. Animals are given endotoxin (0111B4 from List Biologicals, Palo Alto, Calif.) and galactosamine to hypersensitize, as described in Galanos et al., 1979. Proc. Natl. Acad. Sci. USA 76: 5939. The endotoxin and galactosamine (320 mg/kg) are injected intraperitoneally in 0.5 ml pyrogen-free isotonic saline per animal between 13:00 and 15:00 to avoid diurnal variation. From a dose-response study, it is determined that 0.01 mg/kg endotoxin produces 85-95% lethality. Animals are observed each day for 6 days after injection.
# C. PMB anti-endotoxin evaluations
# PMB (native and conjugated forms) are evaluated for their ability to neutralize endotoxin by either pre-mixing with endotoxin for 60 minutes before i.p. injection or by coadministration of the substances as a single i.p. injection. While the concentration of the PMB (native and conjugated forms) are varied, the volume of each injection is kept constant at 0.5 ml per animal. The protection by the conjugated PMB was compared to the native PMB (in terms of mg protein/kg). Controls (endotoxin, galactosamine, and vehicle) are included as well in each study. Each group has between 10-17 animals. […]
# The Therapeutic Index (TI) for PMB (native and conjugated) forms is determined by dividing the LD100 by the PD100. […]
substance,measurement,setting,value
polymyxin B [Native PMB],LD100,non-sensitized mice,25 mg/kg
same,PD100,E.coli 0111B4 endotoxin,0.1 mg/kg
same,LD100,normal test animal; i.v.,9.5 mg/kg
same,LD0 (highest non-toxic dose),"normal test animal; i.v. injection, lethality monitored over 7 days",5 mg/kg
same,PD100,endotoxin (0111B4); PMB or conjugate allowed to react with the endotoxin for 60 min before i.p. injection,2 mg/kg
same,PD100,"endotoxin (0111B4); i.p., dose giving >95% survival, pre-mixing or coadministration with endotoxin not stated for the row",2 mg/kg

# From patent US5177059A, “Polymyxin B conjugates” (Sandoz Ltd., priority 1990, dated 1993)
